Values quoted from earlier work in publication PMC9127185, “A Pyridazinone Compound for Effectively Treating Non-alcoholic Steatohepatitis by Targeting THRβ” (Frontiers in Chemistry, 2022).

Parameters: method as in Harrison et al., 2019
Settings: ref Harrison et al., 2019; cited from earlier work

For `CC(C)c1cc(Oc2c(Cl)cc(-n3nc(C#N)c(=O)[nH]c3=O)cc2Cl)n[nH]c1=O` [resmetirom, 2-[3,5-Dichloro-4-(5-Isopropyl-6-Oxo-1,6-Dihydropyridazin-3-Yloxy)phenyl]-3,5-Dioxo-2,3,4,5-Tetrahydro[1,2,4]triazine-6-Carbonitrile], the Distribution is listed as “liver-specific distribution” and the “Effect on low density lipoprotein and triglyceride” value is listed as “reduced both low density lipoprotein and triglyceride effectively”.
